From publication PMC9293070, “Bioisosteric Modification of To042: Synthesis and Evaluation of Promising Use‐Dependent Inhibitors of Voltage‐Gated Sodium Channels” (Chemmedchem, 2021)
Structures can show the parent of a compound that is named as a salt. Where two headings read alike, the source gives them in different places.

Tests used:
[1] = Apparent permeability across Caco-2 monolayer (BA and AB); assay type: in vitro ADME; conditions: human, 120 min, HBSS pH 7.4; for Papp A→B at 120 min, 100 µM: Apical-to-Basolateral; for Papp B→A at 120 min, 100 µM: Basolateral-to-Apical
Procedure: (§1) Permeability experiments. Details for permeability experiments. Preparation of Caco‐2 monolayer. This procedure has been previously reported by Colabufo et al.[65] Briefly, Caco‐2 cells were harvested with trypsin‐EDTA and seeded onto MultiScreen Caco‐2 assay system at a density of 10,000 cells per well. The culture medium was replaced every 48 h for the first 6 days and every 24 h thereafter. After 21 days in culture, the Caco‐2 monolayer was utilized for the permeability experiments. The Trans Epithelial Electrical Resistance (TEER) of the monolayers was measured daily before and after the experiment using an epithelial voltohmmeter (Millicell®‐ERS; Millipore, Billerica, MA). […] Drug transport experiment. […] Drugs were dissolved in Hanks’ balanced salt solution (HBSS, pH 7.4) and sterile filtered. After 21 days of cell growth, the medium was removed from filter wells and from the receiver plate. The wells were filled with 75 μL of fresh HBSS buffer and the receiver plate with 250 μL per well of the same buffer. This procedure was repeated twice, and the plates were incubated at 37 °C for 30 min. After incubation, the HBSS buffer was removed and drug solutions added to the filter well (75 μL). HBSS without the drug was added to the receiver plate (250 μL). The plates were incubated at 37 °C for 120 min. After incubation, samples were removed from the apical (filter well) and basolateral (receiver plate) sides of the monolayer and stored at −20 °C up to analysis. Compounds were lyophilized at −52 °C and 0.06 bars for 24 h and desalted by adding 500 μL of CH3CN (in order to remove phosphate salts coming from HBSS), then 500 μL of Ammonium Acetate (50 mM, pH 5) were added. The resulting solutions were analyzed by ESI‐MS in order to determine the concentration of drug in the samples. The concentration of tested compounds was measured using UV spectroscopy. The apparent permeability (P app), in units of nm per second, was calculated using the following equation: […]
(§2) where V A is the volume (in mL) in the acceptor well; Area is the surface area of the membrane (0.11 cm^2 of the well); time is the total transport time in seconds (7200 s); [drug]acceptor is the concentration of the drug measured by ESI‐MS analyses or UV spectroscopy; [drug]initial is the initial drug concentration (1 ⋅ 10^−4 M) in the apical or basolateral wells.

hNav1.4 [2] = target: T1, hNav1.4 (Homo sapiens, UniProt P35499); conditions: cited from earlier work
hNav1.4 [3] = target: T1, hNav1.4; assay: Patch-clamp block of hNav1.4 sodium currents in HEK293T cells; assay type: cell-based; conditions: for IC50: HEK293T cells, value ± standard error of the fit; for TB/PB (ratio IC50 tonic block/IC50 phasic block): use-dependence
Procedure: Patch clamp experiments. Exploratory compounds were tested on sodium currents recorded in HEK293T cells (human embryonic kidney cell line) permanently expressing the wild‐type human Nav1.4 sodium channel, as previously described.[14, 61] Whole‐cell sodium currents were recorded at room temperature (∼22 °C) using Axon hardware and software (Axon Instruments Inc., Union City, CA, USA). Bath solution contained (mM): 150 NaCl, 4 KCl, 2 CaCl2, 1 MgCl2, 5 HEPES and 5 glucose (pH 7.4). Pipette solution contained (mM): 120 CsF, 10 CsCl, 10 NaCl, 5 EGTA, and 5 HEPES (pH 7.2). Pipette resistance was […]. Stabilization of the whole‐cell configuration was allowed for 5 minutes before to record sodium currents elicited from a holding potential of −120 mV using 25 ms‐long test pulses at −30 mV applied every 10 or 0.1 sec (0.1 and 10 Hz frequencies). The patched cell was continuously perfused by control or drug‐supplemented bath solution. To limit errors due to rundown and voltage‐dependence shifts, no more than two drug concentrations were tested on each cell. The I DRUG/I CTRL ratio (mean±S.E.M. from at least 3 cells) was plotted against drug concentration.
The half‐maximum inhibitory concentration (IC50) and slope factor (nH) are given with the standard error of the fit.

P-gp = assay: Apparent permeability across Caco-2 monolayer (BA and AB); assay type: in vitro ADME; conditions: human, pH 7.4; ratio of Papp BA to Papp AB
Procedure: as §1, §2

HeLa cells [4] = assay: ROS production by DCF staining, flow cytometry; assay type: cell-based, human
Procedure: (§3) Cell culture. Cervical cancer cell lines (HeLa) were cultured in Dulbecco's modified eagle medium (DMEM) supplemented with 10 % fetal bovine serum (FBS), 1 % glutamine, and 1 % penicillin/streptomycin (all purchased from Euroclone, Italy) in a humidified incubator at 37 °C and 5 % CO2 and 95 % relative humidity.
(§4) Flow cytometry analysis. In order to detect ROS production after drugs treatment,[66, 67] cells at 3×10^5 cells were seeded in 6‐well plates in DMEM with 10 % FBS and cultured overnight. The following day, cells were washed twice with PBS and kept in DMEM without FBS for 2 h. […] Antibiotics were omitted during pharmacological compound assays. After incubation period, cells were washed twice with HBSS, and stained with 5 μM of 2′,7′‐dichorofluorescein (DCFA‐DA) and dihydrorhodamine (DHR) (Thermo Fischer Scientific, Italy) for 30 min in dark. After washing, cells were resuspended in HBSS and analyzed using an Attune Acoustic Focusing Cytometer (Thermo Fisher Scientific) equipped with a 488 nm laser. Thereafter, DCFA‐DA stained cells were co‐stained with 1 μg/mL of 7‐aminoactinomycin D (7‐AAD) (Thermo Fischer Scientific, Italy), incubated on ice for 45 min in dark in order to asses viable and non‐viable cells, and then flow cytometry analysis was carried out.

HeLa cells [5] = assay: Cell viability by 7-AAD co-staining, flow cytometry; assay type: cell-based, human; conditions: 1 and 50 μM, 24 h
Procedure: as §3, §4

HeLa cells [6] = assay: Mitochondrial ROS production by DHR staining, flow cytometry; assay type: cell-based, human; conditions: 50 μM, compared with 13 a
Procedure: as §3, §4

[7] = 0.1 Hz stimulation, read-out: Tonic Block IC50 at 0.1 Hz
[8] = 10 Hz stimulation, read-out: Phasic Block IC50 at 10 Hz

T1 sequence (P35499 whole entry): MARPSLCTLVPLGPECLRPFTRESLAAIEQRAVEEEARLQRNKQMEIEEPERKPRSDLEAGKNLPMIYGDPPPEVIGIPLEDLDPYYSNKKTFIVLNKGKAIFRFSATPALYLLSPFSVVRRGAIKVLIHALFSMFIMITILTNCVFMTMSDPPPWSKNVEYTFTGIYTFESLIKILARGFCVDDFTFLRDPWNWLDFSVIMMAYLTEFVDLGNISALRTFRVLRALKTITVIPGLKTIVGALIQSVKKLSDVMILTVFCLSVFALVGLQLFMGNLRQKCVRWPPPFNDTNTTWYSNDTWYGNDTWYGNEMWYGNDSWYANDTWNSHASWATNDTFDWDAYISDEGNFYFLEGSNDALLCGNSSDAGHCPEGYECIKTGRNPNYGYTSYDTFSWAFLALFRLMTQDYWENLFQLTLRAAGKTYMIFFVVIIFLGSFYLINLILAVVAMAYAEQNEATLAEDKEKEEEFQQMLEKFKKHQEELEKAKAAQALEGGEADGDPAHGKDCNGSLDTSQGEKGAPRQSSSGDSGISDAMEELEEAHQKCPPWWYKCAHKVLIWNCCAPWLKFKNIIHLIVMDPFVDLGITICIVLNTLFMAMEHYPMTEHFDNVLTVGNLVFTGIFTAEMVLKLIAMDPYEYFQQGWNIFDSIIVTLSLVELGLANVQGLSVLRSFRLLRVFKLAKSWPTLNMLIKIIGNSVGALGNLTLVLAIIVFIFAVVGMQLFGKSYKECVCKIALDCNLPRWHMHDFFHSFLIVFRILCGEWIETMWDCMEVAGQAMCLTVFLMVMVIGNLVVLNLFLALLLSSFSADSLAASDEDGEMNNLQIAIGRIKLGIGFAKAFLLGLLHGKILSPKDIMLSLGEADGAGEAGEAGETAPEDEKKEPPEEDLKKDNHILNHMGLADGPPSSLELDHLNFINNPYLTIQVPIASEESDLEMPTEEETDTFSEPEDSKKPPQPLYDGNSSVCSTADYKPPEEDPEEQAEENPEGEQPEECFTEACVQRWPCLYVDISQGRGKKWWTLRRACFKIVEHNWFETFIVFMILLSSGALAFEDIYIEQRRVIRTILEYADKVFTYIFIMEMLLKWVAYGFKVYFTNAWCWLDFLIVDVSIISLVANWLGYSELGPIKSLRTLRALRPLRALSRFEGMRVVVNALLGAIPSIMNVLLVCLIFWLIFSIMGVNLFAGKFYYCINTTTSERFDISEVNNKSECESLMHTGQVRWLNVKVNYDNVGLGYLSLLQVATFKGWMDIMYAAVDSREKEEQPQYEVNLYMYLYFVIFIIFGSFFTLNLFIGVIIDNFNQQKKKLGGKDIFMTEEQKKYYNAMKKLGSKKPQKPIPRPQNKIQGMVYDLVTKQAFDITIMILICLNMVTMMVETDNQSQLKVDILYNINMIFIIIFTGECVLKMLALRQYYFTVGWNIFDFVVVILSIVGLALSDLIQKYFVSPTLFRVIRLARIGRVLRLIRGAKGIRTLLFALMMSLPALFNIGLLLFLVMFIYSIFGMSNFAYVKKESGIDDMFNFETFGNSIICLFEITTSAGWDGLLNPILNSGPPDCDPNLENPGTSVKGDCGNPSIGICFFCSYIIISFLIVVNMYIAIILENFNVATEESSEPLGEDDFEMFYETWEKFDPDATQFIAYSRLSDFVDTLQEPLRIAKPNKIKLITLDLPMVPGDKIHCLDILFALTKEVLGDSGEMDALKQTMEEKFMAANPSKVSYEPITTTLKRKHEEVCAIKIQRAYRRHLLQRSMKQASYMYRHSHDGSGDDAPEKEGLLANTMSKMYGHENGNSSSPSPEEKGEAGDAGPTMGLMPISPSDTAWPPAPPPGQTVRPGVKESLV

| Structure (SMILES) | melting point | Papp A→B at 120 min, 100 µM [1] | Papp B→A at 120 min, 100 µM [1] | nH (slope factor), tonic block (hNav1.4 [2]; 0.1 Hz stimulation) | nH (slope factor), phasic block (hNav1.4 [2]; 10 Hz stimulation) | nH (slope factor), tonic block (hNav1.4 [3]; 0.1 Hz stimulation) | IC50 (hNav1.4 [3]; [7]) | nH (slope factor), phasic block (hNav1.4 [3]; 10 Hz stimulation) | IC50 (hNav1.4 [3]; [8]) | TB/PB (ratio IC50 tonic block/IC50 phasic block) (hNav1.4 [3]) | efflux ratio at 120 min, 100 µM (P-gp) | further results |
| --- | --- | --- | --- | --- | --- | --- | --- | --- | --- | --- | --- | --- |
| Cc1cccc(C)c1NC(=O)CC(C)NCc1ccc2ccccc2c1 (stereo not drawn) (as salt: hydrochloride) [13 b, N‐(2,6‐Dimethylphenyl)‐3‐[(naphthalen‐2‐ylmethyl)amino]butanamide] | 199 to 201 °C |  |  |  |  |  |  |  |  |  |  |  |
| Cc1cccc(C)c1OCCC(C)NCc1cccc2ccccc12 (stereo not drawn) (as salt: hydrochloride) [17 a, N‐[(Naphthalen‐1‐yl)methyl]‐4‐[(2,6‐dimethyl)phenoxy]butan‐2‐amine] | 183 to 184 °C |  |  |  |  |  |  |  |  |  |  |  |
| Cc1cccc(C)c1OCCC(C)NCc1ccc2ccccc2c1 (stereo not drawn) (as salt: hydrochloride) [17 b, N‐[(Naphthalen‐2‐yl)methyl]‐4‐[(2,6‐dimethyl)phenoxy]butan‐2‐amine] | 178 to 179 °C |  |  |  |  |  |  |  |  |  |  |  |
| Cc1cccc(C)c1NC(=O)CC(C)NCc1cccc2ccccc12 (stereo not drawn) [13 a, N‐(2,6‐Dimethylphenyl)‐3‐[(naphthalen‐1‐ylmethyl)amino]butanamide] |  | 56.6 ×10⁻⁶ cm/s | 223 ×10⁻⁶ cm/s | 1.3±0.1 | 0.8±0.1 |  |  |  |  |  |  |  |
| Cc1cccc(C)c1NC(=O)CC(C)NCc1ccc2ccccc2c1 (stereo not drawn) [13 b, N‐(2,6‐Dimethylphenyl)‐3‐[(naphthalen‐2‐ylmethyl)amino]butanamide] |  | 43.8 ×10⁻⁶ cm/s | 216 ×10⁻⁶ cm/s |  |  | 1.1±0.1 | 147 ± 12 µM | 0.8±0.1 | 14 ± 1.8 µM | 10.5 | 4.9 |  |
| Cc1cccc(C)c1OCCC(C)NCc1cccc2ccccc12 (stereo not drawn) [17 a, N‐[(Naphthalen‐1‐yl)methyl]‐4‐[(2,6‐dimethyl)phenoxy]butan‐2‐amine] |  | 25.9 ×10⁻⁶ cm/s | 180 ×10⁻⁶ cm/s |  |  | 1.2±0.2 | 1080 ± 150 µM | 0.8±0.1 | 57 ± 8 µM | 18.9 | 7.1 | fold higher IC50 value at 10 Hz than To042 (hNav1.4 [3]; 10 Hz, relative to To042): 6 fold; percentage of ROS producing cells related to untreated cells (% DCF (+) cells) (HeLa cells [4]; 1 μM, 6 h exposure): no significant effects; percentage of ROS producing cells related to untreated cells (% DCF (+) cells) (HeLa cells [4]; 50 μM, 6 h exposure): significant cytoprotective effect; ROS production related to untreated cells (DCF fluorescence median) (HeLa cells [4]; 50 μM, 24 h exposure): ~3 fold; percentage of ROS producing cells related to untreated cells (% DCF (+) cells) (HeLa cells [4]; 24 h exposure, regardless of concentrations (1 and 50 μM)): prominent cytoprotective effect; cellular viability (7-AAD positive cells untreated related) (HeLa cells [5]): not affected; mitochondrial ROS levels (DHR) (HeLa cells [6]): lower ROS levels; percentage of mitochondrial ROS producing cells (DHR) (HeLa cells [6]): lower percentage of ROS producing cells |
| Cc1cccc(C)c1OCCC(C)NCc1ccc2ccccc2c1 (stereo not drawn) [17 b, N‐[(Naphthalen‐2‐yl)methyl]‐4‐[(2,6‐dimethyl)phenoxy]butan‐2‐amine] |  | 49.6 ×10⁻⁶ cm/s | 199 ×10⁻⁶ cm/s |  |  | 0.9±0.1 | 88 ± 11 µM | 1.1±0.1 | 8.8 ± 0.6 µM | 10 | 4 |  |
| Cc1cccc(C)c1OCC(C)N (stereo not drawn) [mexiletine] |  |  |  | 1.2±0.1 | 0.9±0.1 |  |  |  |  |  |  | IC50 (hNav1.4 [2]; [7]): 256 ± 25 µM; IC50 (hNav1.4 [2]; [8]): 46 ± 5 µM |
| Cc1cccc(C)c1NC(=O)C(C)N (stereo not drawn) [tocainide] |  | 49.6 ×10⁻⁶ cm/s | 196 ×10⁻⁶ cm/s | 1.0±0.1 | 1.1±0.2 |  |  |  |  |  | 3.9 | IC50 (hNav1.4 [2]; [7]): 700 ± 70 µM; IC50 (hNav1.4 [2]; [8]): 182 ± 24 µM; TB/PB (ratio IC50 tonic block/IC50 phasic block) (hNav1.4 [2]; use-dependence): 3.8 |
